How the values were obtained:
TF-1 cell line = assay: Ex vivo cytotoxicity assay, leukemia cell lines; assay type: cell-based; settings: Homo sapiens; Table 5: TF-1, Erythroleukemia, 72 h; AKR1C3 expression Medium
Experimental: (§1) Leukemia cell lines were suspended in RPMI medium supplemented with FBS (Biosera), while ALL PDX cells were cultured in QBSF medium (Quality Biological Inc.,) supplemented with Flt-3 ligand (20 ng/ml, BioNovus Life Sciences) or IL7 (10-20 ng/ml, Jomar Life Research). Cells were inoculated according to the optimal cell density and incubated for 3h or overnight (37° C., 5% CO2). PDX cells and leukemia cell lines were treated with OBI-3424 ([…]) or medium control for 48 or 72 h, respectively. Viability was determined using Alamar Blue reduction assay or Cell Titer-Glo Luminescent Cell Viability Assay (Promega). The half-maximal inhibitory concentration (IC50) was used to calculate the interpolation of nonlinear regression curves by GraphPad Prism 7 software.
(§2) The expression levels of AKR1C3 protein was determined by Western blot analysis. The ex vivo cytotoxicity of OBI-3424 was determined using CellTiter-Glo assay and calculated as 50% maximum inhibitory concentration (IC50).

K-562 cell line = assay: Ex vivo cytotoxicity assay, leukemia cell lines; assay type: cell-based; settings: Homo sapiens, K562; Table 5: K-562, CML, 72 h; AKR1C3 expression Low
Experimental: as §1, §2

KG-1 cell line = assay: Ex vivo cytotoxicity assay, leukemia cell lines; assay type: cell-based; settings: Homo sapiens; Table 5: KG-1, Erythroleukemia, 72 h; AKR1C3 expression High
Experimental: as §1, §2

Kasumi-1 cell line = assay: Ex vivo cytotoxicity assay, leukemia cell lines; assay type: cell-based; settings: Homo sapiens; Table 5: Kasumi-1, AML, 72 h; AKR1C3 expression Low
Experimental: as §1, §2

TALL-1 cell line = assay: Ex vivo cytotoxicity assay, leukemia cell lines; assay type: cell-based; settings: Homo sapiens
Experimental: as §1, §2

P31/FUJ cell line = assay: Ex vivo cytotoxicity assay, leukemia cell lines; assay type: cell-based; settings: Homo sapiens; Table 5: P31/FUJ, AML, 72 h; AKR1C3 expression Low
Experimental: as §1, §2

GR-ST cell line = assay: Ex vivo cytotoxicity assay, leukemia cell lines; assay type: cell-based; settings: Homo sapiens, B-ALL (transfected with G-CSF)
Experimental: as §1, §2

SUP-T1 cell line = assay: Ex vivo cytotoxicity assay, leukemia cell lines; assay type: cell-based; settings: Homo sapiens
Experimental: as §1, §2

THP-1 cell line = assay: Ex vivo cytotoxicity assay, leukemia cell lines; assay type: cell-based; settings: Homo sapiens; Table 5: THP-1, AML (pediatric), 72 h; AKR1C3 expression Low
Experimental: as §1, §2

ATN-1 cell line = assay: Ex vivo cytotoxicity assay, leukemia cell lines; assay type: cell-based; settings: Homo sapiens; Table 5: ATN-1, T-ALL (adult), 72 h; AKR1C3 expression Low
Experimental: as §1, §2

CCRF-CEM cell line = assay: Ex vivo cytotoxicity assay, leukemia cell lines; assay type: cell-based; settings: Homo sapiens
Experimental: as §1, §2

[1] = test system: Jurkat, clone E6-1 cell line; assay: Ex vivo cytotoxicity assay, leukemia cell lines; assay type: cell-based; settings: Homo sapiens
Experimental: as §1, §2

Mono-Mac-6 cell line = assay: Ex vivo cytotoxicity assay, leukemia cell lines; assay type: cell-based; settings: Homo sapiens; Table 5: Mono-Mac-6, AML-M5, 72 h; AKR1C3 expression Low
Experimental: as §1, §2

P30/OHK cell line = assay: Ex vivo cytotoxicity assay, leukemia cell lines; assay type: cell-based; settings: Homo sapiens; Table 5: P30/OHK, T-ALL (pediatric), 72 h; AKR1C3 expression Low
Experimental: as §1, §2

PF-382 cell line = assay: Ex vivo cytotoxicity assay, leukemia cell lines; assay type: cell-based; settings: Homo sapiens
Experimental: as §1, §2

P116 cell line = assay: Ex vivo cytotoxicity assay, leukemia cell lines; assay type: cell-based; settings: Homo sapiens
Experimental: as §1, §2

NOMO-1 cell line = assay: Ex vivo cytotoxicity assay, leukemia cell lines; assay type: cell-based; settings: Homo sapiens, AKR1C3 expression Medium
Experimental: as §1, §2

Jurkat cell line = assay: Ex vivo cytotoxicity assay, leukemia cell lines; assay type: cell-based; settings: Homo sapiens
Experimental: as §1, §2

[2] = test system: hepatocellular carcinoma cell lines; assay: Ex vivo proliferation assay, group of hepatocellular carcinoma cell lines (summary); assay type: cell-based, human
Experimental: Exponentially growing cells were inoculated. After 24 h, the test compound OBI-3424 was added. After addition of the test compound OBI-3424, plates were incubated in a standard tissue incubator at 37° C. for the indicated hours. At the end of the experiment, viable cells were detected using the CellTiter Glo (CTG) assay kit or AlamarBlue. Drug concentrations (IC50) resulting in 50% growth inhibition relative to untreated control were calculated using XLfit (IDBS, Boston, MA) or Prism 6 (GraphPad, San Diego, CA).
After exposing the hepatocellular carcinoma cell lines to compound OBI-3424 for 96 h and exposing the NSCLC cell lines to compound OBI-3424 for 72 h, the IC50 value was determined by ex vivo proliferation assay, and the expression of AKR1C3 protein in hepatocellular carcinoma cell lines was determined by Western blotting (tubulin was used as loading control). The expression data of AKR1C3 RNA in the hepatocellular carcinoma cell lines and in the NSCLC cell lines were from CrownBio database (https://db.crownbio.com/Crownbio/OncoExpress_Login.aspx).
On the other hand, cells expressing low AKR1C3 were less sensitive to OBI-3424, where IC50 values were higher than 1000 nM.

C[C@H](OP(=O)(N1CC1)N1CC1)c1ccc([N+](=O)[O-])c(Oc2cccc(C(=O)N(C)C)c2)c1 [OBI-3424]
IC50 (TF-1 cell line): 2.8 nM
IC50 (K-562 cell line): > 1000 nM
IC50 (KG-1 cell line): 153 nM
IC50 (Kasumi-1 cell line): > 1000 nM
IC50 (TALL-1 cell line; Table 4: TALL-1, T-ALL (child), AKR1C3 expression Strong, CellTiter-Glo): 30 nM
IC50 (TALL-1 cell line; Table 5: TALL-1, T-ALL (pediatric), 72 h, AKR1C3 expression Medium): 30 nM
IC50 (P31/FUJ cell line): > 1000 nM
IC50 (GR-ST cell line; Table 4: GR-ST, AKR1C3 expression Strong, CellTiter-Glo): 9.9 nM
IC50 (GR-ST cell line; Table 5: GR-ST, 72 h, AKR1C3 expression Medium): 9.9 nM
IC50 (SUP-T1 cell line; Table 4: SUP-T1, T-ALL (child), AKR1C3 expression Strong, CellTiter-Glo): 3 nM
IC50 (SUP-T1 cell line; Table 5: SUP-T1, T-ALL (pediatric), 72 h, AKR1C3 expression Medium): 3 nM
IC50 (THP-1 cell line): > 1000 nM
IC50 (ATN-1 cell line): > 1000 nM
IC50 (CCRF-CEM cell line; Table 4: CCRF-CEM, T-ALL (child), AKR1C3 expression Strong, CellTiter-Glo): 3.7 nM
IC50 (CCRF-CEM cell line; Table 5: CCRF-CEM, T-ALL, 72 h, AKR1C3 expression High): 3.7 nM
IC50 ([1]; Table 4: Jurkat, Clone E6-1, T-ALL (child), AKR1C3 expression Medium, CellTiter-Glo): 24 nM
IC50 ([1]; Table 5: Jurkat, clone E6-1, T-ALL, 72 h, AKR1C3 expression Low): 24 nM
IC50 (Mono-Mac-6 cell line): 29.8 nM
IC50 (P30/OHK cell line): > 1000 nM
IC50 (PF-382 cell line; Table 4: PF-382, T-ALL (child), AKR1C3 expression Strong, CellTiter-Glo): 15 nM
IC50 (PF-382 cell line; Table 5: PF-382, T-ALL (pediatric), 72 h, AKR1C3 expression Medium): 15 nM
IC50 (P116 cell line; Table 4: P116, T-ALL (Jurkat mutant), AKR1C3 expression Medium, CellTiter-Glo): 84 nM
IC50 (P116 cell line; Table 5: P116, Jurkat mutant, 72 h, AKR1C3 expression Low): 84 nM
IC50 (NOMO-1 cell line; Table 4: NOMO-1, AML (acute monocytic), CellTiter-Glo): 11 nM
IC50 (NOMO-1 cell line; Table 5: NOMO-1, T-ALL (adult), 72 h): 11 nM
IC50 (Jurkat cell line; Table 4: Jurkat, T-ALL (child), AKR1C3 expression Medium, CellTiter-Glo): 40 nM
IC50 (Jurkat cell line; Table 5: Jurkat, T-ALL (pediatric), 72 h, AKR1C3 expression Low): 40 nM
IC50 ([2]; Homo sapiens, cells expressing low AKR1C3): > 1000 nM
IC50 values ([2]; hepatocellular carcinoma cell lines with high AKR1C3 expression at both protein and RNA levels): low nanomolar range
